Measurements reported in ChEMBL document CHEMBL1201862, “PubChem BioAssay data set” (2004).
Active and inactive are the calls of the source.

What was measured:
[1] = target: Muscarinic acetylcholine receptor M1 (Rattus norvegicus, UniProt P08482); test: concentration-dependent potentiation of ACh at M1 – cell-based, calcium mobilization, CHO-K1, ACh EC20, dose response (AID 2425); format: functional
[2] = target: E3 ubiquitin-protein ligase Mdm2 (Homo sapiens, UniProt Q00987); test: MDM2-luc reporter signal enhancers, multi-concentration potency testing, MDM2 ubiquitin-protein ligase inhibitor program, whole-cell format, luminescence detection, 384-well microplate (AID 1394); format: functional;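 also: MDM2 E3 inhibitors raise luminescence so EC50 is for signal enhancement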
[3] = target: Mitogen-activated protein kinase 10 (Homo sapiens, UniProt P53779); test: Dose response biochemical screening assay for inhibitors of c-Jun N-Terminal Kinase 3 (JNK3). [Related pubchem assays: 746 ]
[4] = target: Induced myeloid leukemia cell differentiation protein Mcl-1 (Homo sapiens, UniProt Q07820); format: functional
[5] = viability loss in THP-1 monocytes – THP-1 cells, cytotoxicity control for Vif-APOBEC3G degradation inhibitor project, dose response (AID 1117359); format: functional; conditions: THP-1
Vero [6] = test: inhibition of WNV-induced cytopathic effect – cell-based, CPE readout (AID 1621); format: functional; conditions: Chlorocebus sabaeus
Vero [7] = test: cells; format: functional, cell-based; conditions: Chlorocebus sabaeus
[8] = viability inhibitors of stage V gametocytes – luminescence, dose response (AID 1117278); format: functional, cell-based;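 also: gametocytes exposed to compound for 24 hours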
[9] = viability loss in human Jurkat cells – cell-based, luminescence, cytotoxicity control for P. falciparum gametocyte viability project, dose response (AID 1117277); format: functional;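 also: potency reflects loss of cellular ATP meaning fewer viable cells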
[10] = lung carcinoma cell viability loss – CellTiter-Glo luminescence, dry powder, set 17, dose response (AID 1117284); format: functional, cell-based; conditions: A549
[11] = CellTiter-Glo luminescence survival assay, SW480 colon tumor line, concentration-response curve, half-maximal inhibitory concentration (AID 1117338); format: functional
[12] = IC50 of insulin release inhibition, rat insulinoma INS-1E line, 5 mM glucose, cell-based (AID 1117331); format: functional
[13] = RKO cell viability reduction, dose response, CellTiter-Glo luminescence (AID 1117322); format: functional
[14] = cytotoxicity toward HCT116 cells – cell-based, CellTiter-Glo luminescence, IC50, dose response (AID 1117332); format: functional; conditions: HCT-116
[15] = SNU-C1 cell viability reduction, dose response, CellTiter-Glo luminescence (AID 1117323); format: functional, cell-based
cells = format: functional, cell-based; conditions: INS-1E
[16] = cytotoxicity toward HT-29 cells – cell-based, CellTiter-Glo luminescence, IC50, dose response (AID 1117330); format: functional
[17] = Reduced DLD-1 viability, concentration-response, CellTiter-Glo luminescence (AID 1117352); format: functional
[18] = HCT116 cell viability decrease, GSK3B pretreatment – CellTiter-Glo, IC50, dose response (AID 1117339); format: functional; conditions: HCT-116

Chain of Muscarinic acetylcholine receptor M1 (P08482 whole entry): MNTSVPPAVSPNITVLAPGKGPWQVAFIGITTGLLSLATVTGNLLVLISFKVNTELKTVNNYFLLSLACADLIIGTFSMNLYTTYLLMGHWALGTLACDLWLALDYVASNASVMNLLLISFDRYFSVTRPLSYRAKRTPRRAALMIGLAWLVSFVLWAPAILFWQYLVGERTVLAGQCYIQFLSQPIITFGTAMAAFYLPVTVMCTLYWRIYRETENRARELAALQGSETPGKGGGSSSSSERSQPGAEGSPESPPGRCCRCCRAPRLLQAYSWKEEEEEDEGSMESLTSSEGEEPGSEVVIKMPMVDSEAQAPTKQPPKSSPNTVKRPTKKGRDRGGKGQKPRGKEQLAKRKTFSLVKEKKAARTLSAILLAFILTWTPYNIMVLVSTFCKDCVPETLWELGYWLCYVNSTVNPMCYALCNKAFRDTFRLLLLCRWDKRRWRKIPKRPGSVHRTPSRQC
Chain of E3 ubiquitin-protein ligase Mdm2 (Q00987 whole entry): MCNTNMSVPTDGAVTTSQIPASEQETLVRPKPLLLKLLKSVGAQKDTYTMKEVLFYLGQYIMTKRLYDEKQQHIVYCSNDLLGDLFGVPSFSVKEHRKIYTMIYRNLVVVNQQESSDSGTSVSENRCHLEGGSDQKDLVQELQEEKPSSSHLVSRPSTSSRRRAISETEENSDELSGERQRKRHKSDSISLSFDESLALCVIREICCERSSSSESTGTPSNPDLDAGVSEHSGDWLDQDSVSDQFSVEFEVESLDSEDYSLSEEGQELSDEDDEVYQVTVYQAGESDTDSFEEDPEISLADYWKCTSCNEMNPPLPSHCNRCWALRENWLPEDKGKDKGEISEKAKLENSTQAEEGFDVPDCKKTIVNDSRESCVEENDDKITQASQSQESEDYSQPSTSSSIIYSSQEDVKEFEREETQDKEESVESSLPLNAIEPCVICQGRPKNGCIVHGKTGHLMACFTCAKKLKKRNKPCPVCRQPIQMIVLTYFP
Chain of Mitogen-activated protein kinase 10 (P53779 whole entry): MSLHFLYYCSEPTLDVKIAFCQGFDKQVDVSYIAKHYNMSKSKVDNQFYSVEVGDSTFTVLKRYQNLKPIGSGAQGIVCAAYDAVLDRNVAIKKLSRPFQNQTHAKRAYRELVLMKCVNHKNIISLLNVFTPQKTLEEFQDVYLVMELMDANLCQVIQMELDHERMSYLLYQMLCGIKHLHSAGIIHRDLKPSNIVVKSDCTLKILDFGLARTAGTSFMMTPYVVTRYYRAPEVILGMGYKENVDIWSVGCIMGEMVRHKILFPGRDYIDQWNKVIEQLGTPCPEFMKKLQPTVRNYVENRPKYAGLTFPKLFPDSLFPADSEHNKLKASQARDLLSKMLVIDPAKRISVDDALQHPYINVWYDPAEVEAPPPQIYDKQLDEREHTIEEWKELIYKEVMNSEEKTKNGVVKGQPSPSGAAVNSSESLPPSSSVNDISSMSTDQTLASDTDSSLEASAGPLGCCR
Chain of Induced myeloid leukemia cell differentiation protein Mcl-1 (Q07820 whole entry): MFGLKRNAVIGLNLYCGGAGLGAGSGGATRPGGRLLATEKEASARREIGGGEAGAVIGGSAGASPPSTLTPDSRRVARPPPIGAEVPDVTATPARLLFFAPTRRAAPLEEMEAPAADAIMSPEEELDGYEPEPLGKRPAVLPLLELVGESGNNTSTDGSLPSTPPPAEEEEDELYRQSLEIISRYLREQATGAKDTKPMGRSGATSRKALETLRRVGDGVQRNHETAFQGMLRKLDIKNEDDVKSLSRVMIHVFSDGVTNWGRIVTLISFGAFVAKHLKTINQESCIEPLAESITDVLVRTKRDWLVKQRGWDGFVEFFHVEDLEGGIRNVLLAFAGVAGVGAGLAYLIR

Which EC50 [1] does the source give for Cn1cc(-c2ccc(CN3C(=O)C(=O)c4c(F)ccc(F)c43)c(F)c2)cn1 here?
Its EC50 is 1.23 µM (active).

With Cn1cc(-c2cc(F)c(CN3C(=O)C(=O)c4cccc(F)c43)c(F)c2)cn1 as the molecule, how does the EC50 [1] read?
Its EC50 is 1.03 µM (active).

For Cc1noc(C)c1COc1ccc(C(=O)NCc2ccccn2)cc1, which EC50 [2] is on record?
The EC50 was 2.96 µM (not active).

With O=C(c1cccc(F)c1)N1CCCC(C(=O)N2CCCC2)C1 (centres undefined) as the molecule, how does the IC50 [3] read?
Its IC50 is > 93.1 µM (not active).

For Cc1cc(C(=O)COC(=O)c2cc(O)c3ccccc3c2O)c(C)n1CC1CCCO1 (centres undefined), which IC50 [4] is on record?
The IC50 was 3.09 µM (active).

And the CC50 [5]?
The CC50 was 25.9 µM (active).

Which results are given for CN(C)CCNC(=O)c1cc2sc3ccccc3c2s1?
IC50 (Vero [6]): 24.5 µM (active); IC50 (Vero [7]): 21 µM (active)

For CCN(CC)CCNC(=O)C1CCN(S(=O)(=O)c2c(C)noc2/C=C/c2ccccc2F)CC1, which IC50 (Vero [6]) is on record?
Its IC50 is 25 µM (active).

For COc1ccc(N2C(=O)CSC23C(=O)N2CCCc4cccc3c42)cc1 (centres undefined), which IC50 [8] is on record?
Its IC50 is > 109 µM (inactive).

And the IC50 [9]?
Its IC50 is > 83.3 µM (inactive).

Which EC50 [2] does the source give for Cc1cc(C(=O)Nc2cccc3ccccc23)n(-c2ccccc2)n1 here?
The EC50 was 25 µM (not active).

For COc1cccc(-c2ccc(CN(C)C[C@@H]3Oc4cc(C#C[C@@H](C)O)ccc4S(=O)(=O)N([C@@H](C)CO)C[C@@H]3C)cc2)c1, which AC50 [10] is on record?
The AC50 was 32.6 µM (active).

For COc1ccc(-c2ccc3c(c2)O[C@@H](CN(C)Cc2ccc(-c4ccccc4)cc2)[C@@H](C)CN([C@@H](C)CO)S3(=O)=O)cc1, which AC50 [10] is on record?
The AC50 was 32.6 µM (active).

For c1csc(-c2cnc3ccccc3n2)c1, which IC50 [3] is on record?
Its IC50 is 34 µM (not active).

For Cc1c(C)n(Cc2ccccc2)c2ccc(C(=O)OCCN(C)C)cc12 [INDOCATE], which IC50 [11] is on record?
Its IC50 is 8.78 µM (inactive).

What about the IC50 [12] of the same molecule?
The IC50 was 3.84 µM (active).

What about the IC50 [13] of the same molecule?
Its IC50 is 12.8 µM (inactive).

What about the IC50 [14] of the same molecule?
The IC50 was 11.8 µM (inactive).

What about the IC50 [15] of the same molecule?
The IC50 was 12 µM (inactive).

And the IC50 (cells)?
Its IC50 is 14.9 µM (inactive).

And the IC50 [16]?
Its IC50 is > 6.67 µM (inactive).

And the IC50 [17]?
The IC50 was 11.3 µM (inactive).

And the IC50 [18]?
Its IC50 is 5.47 µM (inactive).
